Assays:
human V1a receptor = target: T1, human V1a receptor (Homo sapiens, UniProt P37288); assay: Cellular in vitro assay for vasopressin receptor activity, V1a cell line (aequorin luminescence); assay type: cell-based; settings: for IC50: CHO cell line transfected with human V1a receptor, agonist [Arg8]-vasopressin at EC50 concentration, read-out: IC50hV1a; for ratio IC50 hV2/hV1a: ratio of the IC50 on human V2 to the IC50 on human V1a
T1 construct: expressed in transfected cells; host or cells: CHO K1 (ATCC), also stably transfected with a modified aequorin
T1 sequence (P37288 whole entry): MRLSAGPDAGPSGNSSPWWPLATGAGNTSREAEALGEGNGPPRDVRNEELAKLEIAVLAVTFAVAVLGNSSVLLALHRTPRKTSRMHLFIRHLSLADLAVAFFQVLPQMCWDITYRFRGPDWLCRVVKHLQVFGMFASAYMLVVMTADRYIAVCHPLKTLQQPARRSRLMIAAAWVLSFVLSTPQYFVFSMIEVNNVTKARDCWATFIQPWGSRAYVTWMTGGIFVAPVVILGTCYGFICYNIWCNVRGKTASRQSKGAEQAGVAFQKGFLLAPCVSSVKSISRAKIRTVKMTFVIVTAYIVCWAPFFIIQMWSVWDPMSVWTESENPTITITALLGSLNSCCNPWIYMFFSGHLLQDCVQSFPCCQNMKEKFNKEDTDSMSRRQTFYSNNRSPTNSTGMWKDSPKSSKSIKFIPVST
Method: (§1) B-1. Cellular In Vitro Assay for Determining Vasopressin Receptor Activity
(§2) The identification of agonists and antagonists of the V1a and V2 vasopressin receptors from humans, rats and dogs as well as the quantification of the activity of the compounds of the invention is carried out using recombinant cell lines. These cell lines originally derive from a hamster's ovary epithelial cell (Chinese Hamster Ovary, CHO K1, ATCC: American Type Culture Collection, Manassas, Va. 20108, USA). The test cell lines constitutively express the human, rat or dog V1a or V2 receptors. In case of the Gαq-coupled V1a receptors, cells are also stably transfected with a modified form of the calcium-sensitive photoproteins aequorin (human and rat V1a) or obelin (dog V1a), which, after reconstitution with the cofactor coelenterazine, emit light when there are increases in free calcium concentrations [Rizzuto R, Simpson A W, Brini M, Pozzan T, Nature 358, 325-327 (1992); Illarionov B A, Bondar V S, Illarionova V A, Vysotski E S, Gene 153 (2), 273-274 (1995)]. The resulting vasopressin receptor cells react to stimulation of the recombinantly expressed V1a receptors by intracellular release of calcium ions, which can be quantified by the resulting photoprotein luminescence. The Gs-coupled V2 receptors are stably transfected into cell lines expressing the gene for firefly luciferase under control of a CRE-responsible promoter. Activation of V2 receptors induces the activation of the CRE-responsive promoter via cAMP increase, thereby inducing the expression of firefly luciferase. The light emitted by photoproteins of V1a cell lines as well as the light emitted by firefly luciferase of V2 cell lines corresponds to the activation or inhibition of the respective vasopressin receptor. The bioluminescence of the cell lines is detected using a suitable luminometer [Milligan G, Marshall F, Rees S, Trends in Pharmacological Sciences 17, 235-237 (1996)].
Vasopressin V1a Receptor Cell Lines:
On the day before the assay, the cells are plated out in culture medium (DMEM/F12, 2% FCS, 2 mM glutamine, 10 mM HEPES, 5 μg/ml coelenterazine) in 384-well microtiter plates and kept in a cell incubator (96% humidity, 5% v/v CO2, 37° C.). On the day of the assay, test compounds in various concentrations are placed for 10 minutes in the wells of the microtiter plate before the agonist [Arg^8]-vasopressin at EC50 concentration is added. The resulting light signal is measured immediately in a luminometer.
(§3) Table 1A below lists individual IC50 values for the compounds of the invention (including racemic mixtures as well as separated enantiomers) that were obtained from cell lines transfected with the human V1a or V2 receptor: […]

human V2 receptor = target: T2, human V2 receptor (Homo sapiens, UniProt P30518); assay: Cellular in vitro assay for vasopressin receptor activity, V2 cell line (CRE-luciferase); assay type: cell-based; settings: CHO cell line transfected with human V2 receptor; agonist [Arg8]-vasopressin at EC50 concentration, 3 hours; read-out: IC50hV2
T2 construct: expressed in transfected cells; host or cells: CHO K1 (ATCC) line expressing firefly luciferase under a CRE-responsive promoter
T2 sequence (P30518 whole entry): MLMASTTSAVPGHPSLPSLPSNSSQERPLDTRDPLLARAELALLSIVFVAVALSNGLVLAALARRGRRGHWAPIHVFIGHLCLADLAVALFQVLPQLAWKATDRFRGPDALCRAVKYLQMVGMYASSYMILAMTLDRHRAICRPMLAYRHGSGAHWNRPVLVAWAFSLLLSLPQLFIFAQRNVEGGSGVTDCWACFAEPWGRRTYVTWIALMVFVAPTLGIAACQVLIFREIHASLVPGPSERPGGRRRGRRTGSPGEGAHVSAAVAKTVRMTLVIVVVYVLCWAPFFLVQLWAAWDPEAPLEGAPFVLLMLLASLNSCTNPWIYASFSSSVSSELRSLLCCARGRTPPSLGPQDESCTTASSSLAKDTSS
Method: as §1, §2
Vasopressin V2 Receptor Cell Lines:
On the day before the assay, the cells are plated out in culture medium (DMEM/F12, 2% FCS, 2 mM glutamine, 10 mM HEPES) in 384-well microtiter plates and kept in a cell incubator (96% humidity, 5% v/v CO2, 37° C.). On the day of the assay, test compounds in various concentrations and the agonist [Arg^8]-vasopressin at EC50 concentration are added together to the wells, and plates are incubated for 3 hours in a cell incubator. Upon addition of the cell lysis reagent Triton™ and the substrate luciferin, luminescence of firefly luciferase is measured in a luminometer.
as §3

Compound | IC50 (human V1a receptor) | ratio IC50 hV2/hV1a (human V1a receptor) | IC50 (human V2 receptor)
CC(F)c1nc(Cn2nc(-c3ccc(Cl)cc3)n(C[C@H](O)C(F)(F)F)c2=O)nn1-c1ccccc1Cl (mixture of isomers) [Example 1, 5-(4-Chlorophenyl)-2-({1-(2-chlorophenyl)-5-[1-fluoroethyl]-1H-1,2,4-triazol-3-yl}methyl)-4-[(2S)-3,3,3-trifluoro-2-hydroxypropyl]-2,4-dihydro-3H-1,2,4-triazol-3-one] | 0.35 nM | 2.0 | 0.7 nM
CC(F)c1nc(Cn2nc(-c3ccc(Cl)cc3)n(C[C@H](O)C(F)(F)F)c2=O)nn1-c1cnccc1Cl (mixture of isomers) [Example 4, 5-(4-Chlorophenyl)-2-({1-(4-chloropyridin-3-yl)-5-[1-fluoroethyl]-1H-1,2,4-triazol-3-yl}methyl)-4-[(2S)-3,3,3-trifluoro-2-hydroxypropyl]-2,4-dihydro-3H-1,2,4-triazol-3-one] | 2.05 nM | 9.0 | 18.5 nM
CC(F)c1nc(Cn2nc(-c3ccc(Cl)cc3)n(C[C@H](O)C(F)(F)F)c2=O)nn1-c1cccc(Cl)c1 (mixture of isomers) [Example 16, 5-(4-Chlorophenyl)-2-({1-(3-chlorophenyl)-5-[1-fluoroethyl]-1H-1,2,4-triazol-3-yl}methyl)-4-[(2S)-3,3,3-trifluoro-2-hydroxypropyl]-2,4-dihydro-3H-1,2,4-triazol-3-one] | 16 nM | 0.0 | 0.58 nM
CC(F)c1nc(Cn2nc(-c3ccc(Cl)cc3)n(C[C@H](O)C(F)(F)F)c2=O)nn1-c1ncccc1Cl (mixture of isomers) [Example 19, 5-(4-Chlorophenyl)-2-({1-(3-chloropyridin-2-yl)-5-[1-fluoroethyl]-1H-1,2,4-triazol-3-yl}methyl)-4-[(2S)-3,3,3-trifluoro-2-hydroxypropyl]-2,4-dihydro-3H-1,2,4-triazol-3-one] | 2.85 nM | 5.2 | 14.7 nM
CC(F)c1nc(Cn2nc(-c3ccc(Cl)cc3)n(C[C@H](O)C(F)(F)F)c2=O)nn1-c1ccccc1C(F)(F)F (mixture of isomers) [Example 22, 5-(4-Chlorophenyl)-2-({5-[1-fluoroethyl]-1-[2-(trifluoromethyl)phenyl]-1H-1,2,4-triazol-3-yl}methyl)-4-[(2S)-3,3,3-trifluoro-2-hydroxypropyl]-2,4-dihydro-3H-1,2,4-triazol-3-one] | 3.9 nM | 3.5 | 13.5 nM
CC(F)c1nc(Cn2nc(-c3ccc(Cl)cc3)n(C[C@H](O)C(F)(F)F)c2=O)nn1-c1ccccc1OC(F)(F)F (mixture of isomers) [Example 25, 5-(4-Chlorophenyl)-2-({5-[1-fluoroethyl]-1-[2-(trifluoromethoxy)phenyl]-1H-1,2,4-triazol-3-yl}methyl)-4-[(2S)-3,3,3-trifluoro-2-hydroxypropyl]-2,4-dihydro-3H-1,2,4-triazol-3-one] | 2.7 nM | 6.3 | 17 nM
CCc1ccccc1-n1nc(Cn2nc(-c3ccc(Cl)cc3)n(C[C@H](O)C(F)(F)F)c2=O)nc1C(C)F (mixture of isomers) [Example 28, 5-(4-Chlorophenyl)-2-({1-(2-ethylphenyl)-5-[1-fluoroethyl]-1H-1,2,4-triazol-3-yl}methyl)-4-[(2S)-3,3,3-trifluoro-2-hydroxypropyl]-2,4-dihydro-3H-1,2,4-triazol-3-one] | 1.85 nM | 0.4 | 0.76 nM
CC(F)c1nc(Cn2nc(-c3ccc(Cl)cc3)n(C[C@H](O)C(F)(F)F)c2=O)nn1-c1ccccc1OC(F)F (mixture of isomers) [Example 31, 5-(4-Chlorophenyl)-2-({1-[2-(difluoromethoxy)phenyl]-5-[1-fluoroethyl]-1H-1,2,4-triazol-3-yl}methyl)-4-[(2S)-3,3,3-trifluoro-2-hydroxypropyl]-2,4-dihydro-3H-1,2,4-triazol-3-one] | 1.75 nM | 2.6 | 4.58 nM

Reference: patent publication US10525041B2, “Fluoroalkyl-substituted aryltriazole derivatives and uses thereof” (BAYER PHARMA AKTIENGESELLSCHAFT, priority 2016, dated 2020)
